Organism: Rattus norvegicus
Assay: Open TG-GATES - Regimen: Single
Type: toxicity, organism-based, Sprague-Dawley
Parameters: regimen Single, gender Male, age 6 weeks
Details: in vivo, po, 200 mg/kg, route gavage, dose level High; for APTT / Bas / Eos / Fbg / Hb / Ht / Lym / MCH / MCHC / MCV / Mono / Neu / PT / Plat / RBC / Ret / WBC: tissue Blood; for KIDNEY_L / KIDNEY_R / KIDNEY_TOTAL: tissue Kidney; for LIVER: tissue Liver; for A/G / ALP / ALT / AST / BUN / CRE / Ca / Cl / DBIL / GLC / IP / K / LDH / Na / PL / RALB / TBIL / TC / TG / TP / gamma-GTP: tissue Plasma

Cn1c(=O)c2[nH]cnc2n(C)c1=O.O [THEOPHYLLINE]
TERMINAL_BW (3 h): 215.6 g
APTT (3 h): 22.6 s
Bas (3 h): 0%
Eos (3 h): 1%
Fbg (3 h): 278 mg/dL
Hb (3 h): 12.3 g/dL
Ht (3 h): 37.4%
Lym (3 h): 67.2%
MCH (3 h): 20.1 pg
MCHC (3 h): 32.9%
MCV (3 h): 60.9 fL
Mono (3 h): 3%
Neu (3 h): 28%
PT (3 h): 15.9 s
Plat (3 h): 113.5 x10_4/uL
RBC (3 h): 614.2 x10_4/ul
Ret (3 h): 7.9%
WBC (3 h): 58.9 x10_2/uL
KIDNEY_L (3 h): 0.9 g
KIDNEY_R (3 h): 0.9 g
KIDNEY_TOTAL (3 h): 1.8 g
LIVER (3 h): 9.1 g
A/G (3 h): 1.3
ALP (3 h): 1241.4 IU/L
ALT (3 h): 43.8 IU/L
AST (3 h): 93.6 IU/L
BUN (3 h): 13.8 mg/dL
CRE (3 h): 0.1 mg/dL
Ca (3 h): 10 mg/dL
Cl (3 h): 104.4 meq/L
DBIL (3 h): 0 mg/dL
GLC (3 h): 202.8 mg/dL
IP (3 h): 7.2 mg/dL
K (3 h): 3.2 meq/L
LDH (3 h): 215.8 IU/L
Na (3 h): 136.8 meq/L
PL (3 h): 109.8 mg/dL
RALB (3 h): 3.1 g/dL
TBIL (3 h): 0.014 mg/dL
TC (3 h): 66.8 mg/dL
TG (3 h): 20 mg/dL
TP (3 h): 5.4 g/dL
gamma-GTP (3 h): 1.8 IU/L
TERMINAL_BW (6 h): 216 g
APTT (6 h): 22.3 s
Bas (6 h): 0%
Eos (6 h): 0.2%
Fbg (6 h): 329.2 mg/dL
Hb (6 h): 13.1 g/dL
Ht (6 h): 39.7%
Lym (6 h): 58.6%
MCH (6 h): 20.6 pg
MCHC (6 h): 33.1%
MCV (6 h): 62.3 fL
Mono (6 h): 3.6%
Neu (6 h): 35.6%
PT (6 h): 15.5 s
Plat (6 h): 123.7 x10_4/uL
RBC (6 h): 636.8 x10_4/ul
Ret (6 h): 7.6%
WBC (6 h): 75.8 x10_2/uL
KIDNEY_L (6 h): 1 g
KIDNEY_R (6 h): 1 g
KIDNEY_TOTAL (6 h): 1.9 g
LIVER (6 h): 9.5 g
A/G (6 h): 1.3
ALP (6 h): 1423 IU/L
ALT (6 h): 46.2 IU/L
AST (6 h): 111.4 IU/L
BUN (6 h): 13.8 mg/dL
CRE (6 h): 0.2 mg/dL
Ca (6 h): 10.4 mg/dL
Cl (6 h): 108.2 meq/L
DBIL (6 h): 0 mg/dL
GLC (6 h): 206.6 mg/dL
IP (6 h): 6.8 mg/dL
K (6 h): 3.5 meq/L
LDH (6 h): 212.6 IU/L
Na (6 h): 140.2 meq/L
PL (6 h): 127 mg/dL
RALB (6 h): 3.4 g/dL
TBIL (6 h): 0.016 mg/dL
TC (6 h): 72 mg/dL
TG (6 h): 22.2 mg/dL
TP (6 h): 6.1 g/dL
gamma-GTP (6 h): 1.4 IU/L
TERMINAL_BW (9 h): 212.2 g
APTT (9 h): 24.6 s
Bas (9 h): 0%
Eos (9 h): 0%
Fbg (9 h): 335.8 mg/dL
Hb (9 h): 12.9 g/dL
Ht (9 h): 38.7%
Lym (9 h): 69.4%
MCH (9 h): 20.3 pg
MCHC (9 h): 33.4%
MCV (9 h): 60.9 fL
Mono (9 h): 1.4%
Neu (9 h): 28.6%
PT (9 h): 15.5 s
Plat (9 h): 120.5 x10_4/uL
RBC (9 h): 634.8 x10_4/ul
Ret (9 h): 7.6%
WBC (9 h): 51.8 x10_2/uL
KIDNEY_L (9 h): 0.9 g
KIDNEY_R (9 h): 0.9 g
KIDNEY_TOTAL (9 h): 1.8 g
LIVER (9 h): 8.7 g
A/G (9 h): 1.3
ALP (9 h): 1474.4 IU/L
ALT (9 h): 38.8 IU/L
AST (9 h): 86.2 IU/L
BUN (9 h): 12 mg/dL
CRE (9 h): 0.2 mg/dL
Ca (9 h): 10.8 mg/dL
Cl (9 h): 105 meq/L
DBIL (9 h): 0 mg/dL
GLC (9 h): 193.6 mg/dL
IP (9 h): 7.1 mg/dL
K (9 h): 3.5 meq/L
LDH (9 h): 182.8 IU/L
Na (9 h): 139 meq/L
PL (9 h): 141 mg/dL
RALB (9 h): 3.4 g/dL
TBIL (9 h): 0.026 mg/dL
TC (9 h): 77.4 mg/dL
TG (9 h): 30.6 mg/dL
TP (9 h): 6.2 g/dL
gamma-GTP (9 h): 1.2 IU/L
TERMINAL_BW (24 h): 224.5 g
APTT (24 h): 21.6 s
Bas (24 h): 0%
Eos (24 h): 0.4%
Fbg (24 h): 370.4 mg/dL
Hb (24 h): 13.9 g/dL
Ht (24 h): 41.2%
Lym (24 h): 70.2%
MCH (24 h): 20.7 pg
MCHC (24 h): 33.6%
MCV (24 h): 61.4 fL
Mono (24 h): 3.2%
Neu (24 h): 24%
PT (24 h): 16.3 s
Plat (24 h): 124.1 x10_4/uL
RBC (24 h): 670.4 x10_4/ul
Ret (24 h): 7%
WBC (24 h): 103.6 x10_2/uL
KIDNEY_L (24 h): 0.9 g
KIDNEY_R (24 h): 1 g
KIDNEY_TOTAL (24 h): 1.9 g
LIVER (24 h): 9.4 g
A/G (24 h): 1.2
ALP (24 h): 1552.6 IU/L
ALT (24 h): 44.8 IU/L
AST (24 h): 76.2 IU/L
BUN (24 h): 16.4 mg/dL
CRE (24 h): 0.2 mg/dL
Ca (24 h): 11.2 mg/dL
Cl (24 h): 104.4 meq/L
DBIL (24 h): 0 mg/dL
GLC (24 h): 186.4 mg/dL
IP (24 h): 8.4 mg/dL
K (24 h): 4 meq/L
LDH (24 h): 180 IU/L
Na (24 h): 141.6 meq/L
PL (24 h): 129.8 mg/dL
RALB (24 h): 3.1 g/dL
TBIL (24 h): 0.018 mg/dL
TC (24 h): 75 mg/dL
TG (24 h): 38.8 mg/dL
TP (24 h): 5.6 g/dL
gamma-GTP (24 h): 1.4 IU/L

From ChEMBL document CHEMBL3885861, “Open TG-GATES”
